Experimental data taken from the NIST ThermoML archive (doi:10.1021/je500784s).
“And” between values parts separate entries of the source, which are not always exact repeats. Equal values may be shown once.

Columns and labels:
[1] = for vapor or sublimation pressure: Transpiration method; for Normal melting temperature: DTA
[2] = Molar enthalpy of transition or fusion; conditions: Crystal; DSC

Cc1cccc(C)c1I [1-iodo-2,6-dimethylbenzene]
[1], Liquid
Conditions	vapor or sublimation pressure [kPa]
284.5 K	0.005
288.4 K	0.00709
291.6 K	0.00925
296.5 K	0.014
298.4 K	0.01572
299.5 K	0.01696
301.5 K	0.01972
303.3 K	0.02303
306.4 K	0.02867
308.3 K	0.03267
311.4 K	0.04222
313.6 K	0.04835
316.4 K	0.05818
318.4 K	0.06657
321.2 K	0.08028
323.4 K	0.09228
326.3 K	0.1123
328.5 K	0.1277
331.3 K	0.1526
333.4 K	0.1721

Cc1ccccc1I [1-iodo-2-methylbenzene]
[1], Liquid
Conditions	vapor or sublimation pressure [kPa]
283.2 K	0.01623
288.2 K	0.02387
293.2 K	0.0355
301.2 K	0.06212
304.2 K	0.07615
307.4 K	0.0943
310.3 K	0.1131
313.1 K	0.1354
316.2 K	0.1655
319.3 K	0.1983
322.1 K	0.2325
325.1 K	0.2843

Cc1ccc(I)c(C)c1 [1-iodo-2,4-dimethylbenzene]
[1], Liquid
Conditions	vapor or sublimation pressure
293.5 K	0.00972 kPa
298.4 K	0.01434 kPa
301.4 K	0.01827 kPa
303.4 K	0.02175 kPa
306.3 K	0.02654 kPa
308.3 K	0.03017 kPa
311.3 K	0.03876 kPa
313.3 K	0.04322 kPa
316.4 K	0.05407 kPa
318.6 K	0.06284 kPa
321.4 K	0.07438 kPa
323.4 K	0.08333 kPa
326.4 K	0.1058 kPa and 0.1032 kPa
328.5 K	0.1158 kPa

Cc1ccc(Br)cc1 [4-bromotoluene]
[1]
Conditions	vapor or sublimation pressure [kPa]
274.5 K, Crystal	0.01409
277.2 K, Crystal	0.01853
278.3 K, Crystal	0.02013
280.2 K, Crystal	0.02439
282.2 K, Crystal	0.02935
283.2 K, Crystal	0.0328
285.5 K, Crystal	0.04128
286.2 K, Crystal	0.04379
288.3 K, Crystal	0.05178
289.6 K, Crystal	0.05809
291.2 K, Crystal	0.06948
294.3 K, Crystal	0.08957
297.3 K, Crystal	0.1161
298.2 K, Crystal	0.1223
299.2 K, Crystal	0.1357
300.8 K, Crystal	0.1543
301.9 K, Liquid	0.1746
304.2 K, Liquid	0.1989
304.9 K, Liquid	0.2137
307.2 K, Liquid	0.2422
310.3 K, Liquid	0.2964
313.2 K, Liquid	0.3477
314.4 K, Liquid	0.3671
316.3 K, Liquid	0.4044
317.5 K, Liquid	0.4335
319.3 K, Liquid	0.4827
320.6 K, Liquid	0.507
322.4 K, Liquid	0.5742
325.3 K, Liquid	0.6696
328.2 K, Liquid	0.7835
331.3 K, Liquid	0.8879
332.3 K, Liquid	0.9409
335.3 K, Liquid	1.1

Conditions	Normal melting temperature [°C]
[1], Crystal	28.2

Conditions	Molar enthalpy of transition or fusion [kcal/mol]
[2]	3.56

Cc1cccc(C)c1Br [2-bromo-1,3-dimethylbenzene]
[1], Liquid
Conditions	vapor or sublimation pressure
274.2 K	0.00695 kPa
276.2 K	0.0084 kPa
278.3 K	0.01013 kPa
281.2 K	0.01282 kPa
284.2 K	0.0161 kPa
287.2 K	0.02071 kPa
290.2 K	0.02551 kPa
293.3 K	0.0317 kPa and 0.03214 kPa
293.4 K	0.03244 kPa
296.3 K	0.03998 kPa
299.3 K	0.04922 kPa
302.2 K	0.06313 kPa
305.3 K	0.07815 kPa

Ic1ccccc1 [iodobenzene]
[1], Liquid
Conditions	vapor or sublimation pressure [kPa]
283.8 K	0.05269
286.8 K	0.06386
289.9 K	0.08034
293 K	0.09644
294 K	0.1029
296.8 K	0.1261
299.6 K	0.1487
302.6 K	0.1853
305.7 K	0.2226
308.7 K	0.2722
311.8 K	0.3239
314.6 K	0.3944

Cc1cccc(I)c1 [1-iodo-3-methylbenzene]
[1], Liquid
Conditions	vapor or sublimation pressure
275.7 K	0.00715 kPa
279.3 K	0.00936 kPa
281.9 K	0.01131 kPa
283.5 K	0.01241 kPa
286.4 K	0.0157 kPa
289.3 K	0.01945 kPa and 0.01996 kPa
293.1 K	0.02757 kPa
293.2 K	0.02683 kPa
298.1 K	0.0403 kPa
298.2 K	0.03887 kPa
302.9 K	0.05424 kPa and 0.05679 kPa
308 K	0.07665 kPa and 0.07718 kPa
313.1 K	0.1065 kPa

Brc1ccccc1 [bromobenzene]
[1], Liquid
Conditions	vapor or sublimation pressure [kPa]
276.4 K	0.1345
278.3 K	0.1534
282.2 K	0.1957
283.1 K	0.2092
285.4 K	0.2487
286.2 K	0.2532
288.3 K	0.2954
289.3 K	0.3211
291.4 K	0.3549
292.4 K	0.3794
293.2 K	0.4046
294.4 K	0.4413
295.5 K	0.4596
297.4 K	0.5225
300.4 K	0.6407
303.4 K	0.7604

Cc1ccccc1Br [2-bromotoluene]
[1], Liquid
Conditions	vapor or sublimation pressure
281.2 K	0.04946 kPa
284.2 K	0.06067 kPa
285.2 K	0.06568 kPa
287.2 K	0.07592 kPa and 0.07526 kPa
290.2 K	0.09238 kPa
293.2 K	0.1131 kPa
296.2 K	0.1381 kPa
299.2 K	0.1684 kPa
302.2 K	0.2053 kPa
305.2 K	0.25 kPa
308.2 K	0.3008 kPa [middle of 4 runs]
313.1 K	0.3903 kPa [middle of 6 runs]

Cc1cccc(Br)c1 [1-bromo-3-methylbenzene]
[1], Liquid
Conditions	vapor or sublimation pressure
274.2 K	0.02006 kPa
276.2 K	0.0234 kPa
278.2 K	0.02748 kPa
278.3 K	0.02776 kPa
279.2 K	0.0289 kPa
280.3 K	0.03259 kPa
281.3 K	0.0351 kPa
282.2 K	0.03686 kPa
282.5 K	0.03833 kPa
284.2 K	0.0421 kPa and 0.04171 kPa
287.2 K	0.05299 kPa
287.3 K	0.0526 kPa
290.2 K	0.06611 kPa
290.4 K	0.06761 kPa
293.2 K	0.08432 kPa
293.6 K	0.08569 kPa
296.2 K	0.09718 kPa
296.7 K	0.1039 kPa
299.2 K	0.1199 kPa
299.8 K	0.1279 kPa
302.2 K	0.1478 kPa
302.8 K	0.1548 kPa
305.2 K	0.18 kPa
308.2 K	0.2084 kPa and 0.2115 kPa and 0.2068 kPa

Cc1ccc(I)cc1 [4-iodotoluene]
[1]
Conditions	vapor or sublimation pressure
279.5 K, Crystal	0.00537 kPa
283.3 K, Crystal	0.008 kPa
286.3 K, Crystal	0.01101 kPa
289.4 K, Crystal	0.01456 kPa
293.2 K, Crystal	0.0205 kPa and 0.02183 kPa
298.1 K, Crystal	0.0335 kPa
303 K, Crystal	0.0526 kPa
308 K, Liquid	0.08115 kPa
311 K, Liquid	0.09922 kPa
315 K, Liquid	0.1261 kPa
319.1 K, Liquid	0.1599 kPa
323.2 K, Liquid	0.2025 kPa
328.1 K, Liquid	0.2776 kPa
332.9 K, Liquid	0.3665 kPa

Conditions	Normal melting temperature [°C]
[1], Crystal	34.4

Conditions	Molar enthalpy of transition or fusion [kcal/mol]
[2]	3.59
